According to ChEMBL document CHEMBL3352377, “Discovery of selective and orally bioavailable protein kinase Cθ (PKCθ) inhibitors from a fragment hit” (J Med Chem, 2015):

Columns and labels:
[1] = molecular target: T1, Protein kinase C theta type (Homo sapiens, UniProt Q04759)
Description: Inhibition of human recombinant PKCtheta expressed in Sf21 cells using Bio-cdc peptide substrate and ATP after 60 mins by time-resolved fluorescence in-vitro kinase assay

[2] = cells; conditions: Homo sapiens, T-Blast, 24 h
Description: Inhibition of anti-CD3/anti-CD28 antibody-induced IL2 production in human T-Blast cells after 24 hrs

[3] = Unbound intrinsic clearance in human microsomes; assay type: ADME, Microsome
[4] = Unbound intrinsic clearance in rat microsomes; assay type: ADME, Microsome
[5] = molecular target: Protein kinase C alpha type (Homo sapiens, UniProt P17252)
[6] = Permeability from apical to basolateral side in MDCK2-MDR1 cells at pH 7.4; assay type: ADME, cell-based, Canis lupus familiaris, MDCK-II; conditions: dog, MDCK-MDR1, pH 7.4; read-out: permeability
[7] = Unbound intrinsic clearance in mouse microsomes; assay type: ADME, Microsome
[8] = molecular target: Protein kinase C beta type (Homo sapiens, UniProt P05771); experiment: Inhibition of human recombinant PKCbeta expressed in Sf21 cells using Bio-cdc peptide substrate and ATP after 60 mins by time-resolved fluorescence in-vitro kinase assay
Chain of Protein kinase C beta type (P05771 whole entry): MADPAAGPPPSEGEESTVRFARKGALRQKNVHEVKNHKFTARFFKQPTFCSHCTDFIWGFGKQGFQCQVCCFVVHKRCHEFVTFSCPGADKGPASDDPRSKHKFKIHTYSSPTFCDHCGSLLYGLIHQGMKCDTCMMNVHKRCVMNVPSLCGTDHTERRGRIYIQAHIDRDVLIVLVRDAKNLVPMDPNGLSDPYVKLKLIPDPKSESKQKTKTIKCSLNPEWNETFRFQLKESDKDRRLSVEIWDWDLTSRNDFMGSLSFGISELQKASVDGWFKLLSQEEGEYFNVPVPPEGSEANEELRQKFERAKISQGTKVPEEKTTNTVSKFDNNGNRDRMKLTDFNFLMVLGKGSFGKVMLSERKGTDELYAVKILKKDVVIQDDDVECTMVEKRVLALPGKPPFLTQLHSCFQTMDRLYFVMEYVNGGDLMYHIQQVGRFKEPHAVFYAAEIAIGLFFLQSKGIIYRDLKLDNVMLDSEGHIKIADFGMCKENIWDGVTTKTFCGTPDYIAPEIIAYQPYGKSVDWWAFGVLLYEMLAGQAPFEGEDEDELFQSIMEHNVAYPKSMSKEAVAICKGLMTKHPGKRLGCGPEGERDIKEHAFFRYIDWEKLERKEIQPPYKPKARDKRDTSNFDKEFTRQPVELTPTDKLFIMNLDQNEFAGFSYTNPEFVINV

[9] = Cmax in rat at 1 mg/kg, iv or 3 mg/kg, po; assay type: ADME, organism-based; conditions: in vivo
[10] = Plasma clearance in rat at 1 mg/kg, iv or 3 mg/kg, po; assay type: ADME, organism-based
[11] = molecular target: Protein kinase C gamma type (Homo sapiens, UniProt P05129); experiment: Inhibition of human recombinant PKCgamma expressed in Sf21 cells using Bio-cdc peptide substrate and ATP after 60 mins by time-resolved fluorescence in-vitro kinase assay
[12] = molecular target: Protein kinase C delta type (Homo sapiens, UniProt Q05655); experiment: Inhibition of human recombinant PKCdelta expressed in Sf21 cells using Bio-cdc peptide substrate and ATP after 60 mins by time-resolved fluorescence in-vitro kinase assay
Chain of Protein kinase C delta type (Q05655 whole entry): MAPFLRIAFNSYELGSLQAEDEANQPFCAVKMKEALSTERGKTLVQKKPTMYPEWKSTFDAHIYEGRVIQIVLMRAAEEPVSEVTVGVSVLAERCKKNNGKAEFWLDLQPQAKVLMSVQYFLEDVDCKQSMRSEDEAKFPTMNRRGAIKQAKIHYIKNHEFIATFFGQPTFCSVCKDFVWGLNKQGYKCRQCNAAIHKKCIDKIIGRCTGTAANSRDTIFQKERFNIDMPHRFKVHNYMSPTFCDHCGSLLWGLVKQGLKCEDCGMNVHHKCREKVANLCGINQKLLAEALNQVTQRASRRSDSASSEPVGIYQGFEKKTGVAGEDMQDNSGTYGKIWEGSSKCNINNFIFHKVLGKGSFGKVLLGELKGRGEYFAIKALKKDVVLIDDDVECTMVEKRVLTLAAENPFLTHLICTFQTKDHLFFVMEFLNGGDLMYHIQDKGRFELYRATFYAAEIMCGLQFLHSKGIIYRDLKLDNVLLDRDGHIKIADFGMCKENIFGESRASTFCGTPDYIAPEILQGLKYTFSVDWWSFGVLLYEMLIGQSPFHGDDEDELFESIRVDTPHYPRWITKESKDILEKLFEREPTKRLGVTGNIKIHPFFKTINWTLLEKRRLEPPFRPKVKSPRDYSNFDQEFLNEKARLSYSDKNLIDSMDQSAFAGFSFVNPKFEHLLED

[13] = AUC in rat at 1 mg/kg, iv or 3 mg/kg, po; assay type: ADME, organism-based; conditions: plasma
[14] = Oral bioavailability in rat at 3 mg/kg; assay type: ADME, organism-based; conditions: in vivo
[15] = Half life in rat at 1 mg/kg, iv or 3 mg/kg, po; assay type: ADME, organism-based; conditions: in vivo
[16] = molecular target: T1, Protein kinase C theta type; experiment: Inhibition of human recombinant PKCtheta by TR-FRET assay
[17] = molecular target: Focal adhesion kinase 1 (Homo sapiens, UniProt Q05397); experiment: Inhibition of FAK (unknown origin) by TR-FRET assay
Chain of Focal adhesion kinase 1 (Q05397 whole entry): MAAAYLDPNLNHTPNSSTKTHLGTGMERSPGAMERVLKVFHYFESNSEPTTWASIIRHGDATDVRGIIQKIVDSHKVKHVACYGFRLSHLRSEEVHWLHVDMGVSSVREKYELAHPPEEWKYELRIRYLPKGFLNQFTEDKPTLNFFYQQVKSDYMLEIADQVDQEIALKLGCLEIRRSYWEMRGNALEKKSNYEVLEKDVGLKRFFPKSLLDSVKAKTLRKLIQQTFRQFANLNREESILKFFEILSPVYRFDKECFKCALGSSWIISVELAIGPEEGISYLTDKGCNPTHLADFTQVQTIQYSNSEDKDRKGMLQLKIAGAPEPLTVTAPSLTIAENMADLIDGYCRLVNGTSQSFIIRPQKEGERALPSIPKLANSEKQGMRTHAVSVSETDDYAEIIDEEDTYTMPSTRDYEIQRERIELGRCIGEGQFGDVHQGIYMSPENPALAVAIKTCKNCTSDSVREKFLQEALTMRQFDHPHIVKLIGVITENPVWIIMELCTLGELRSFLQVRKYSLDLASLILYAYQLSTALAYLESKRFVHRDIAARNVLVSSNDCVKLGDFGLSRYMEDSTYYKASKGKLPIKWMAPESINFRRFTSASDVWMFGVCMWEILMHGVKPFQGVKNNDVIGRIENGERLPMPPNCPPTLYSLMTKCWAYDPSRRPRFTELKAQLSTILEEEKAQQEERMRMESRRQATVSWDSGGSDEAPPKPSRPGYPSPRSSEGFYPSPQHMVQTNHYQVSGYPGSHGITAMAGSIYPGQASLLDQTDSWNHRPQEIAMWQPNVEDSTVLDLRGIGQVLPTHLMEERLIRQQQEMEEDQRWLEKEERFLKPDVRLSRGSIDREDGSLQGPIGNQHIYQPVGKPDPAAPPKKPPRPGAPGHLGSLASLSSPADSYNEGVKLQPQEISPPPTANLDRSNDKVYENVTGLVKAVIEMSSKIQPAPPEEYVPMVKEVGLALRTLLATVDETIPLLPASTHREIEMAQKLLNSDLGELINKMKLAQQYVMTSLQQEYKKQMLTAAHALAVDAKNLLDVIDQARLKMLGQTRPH

[18] = Inhibition of human recombinant […] expressed in Sf21 cells using Bio-cdc peptide substrate and ATP after 60 mins by time-resolved fluorescence in-vitro kinase assay
[19] = molecular target: T2, Protein kinase C zeta type (Homo sapiens, UniProt Q05513); experiment: Inhibition of human recombinant PKCzeta expressed in Sf21 cells using Bio-cdc peptide substrate and ATP after 60 mins by time-resolved fluorescence in-vitro kinase assay
T2 sequence (Q05513 whole entry): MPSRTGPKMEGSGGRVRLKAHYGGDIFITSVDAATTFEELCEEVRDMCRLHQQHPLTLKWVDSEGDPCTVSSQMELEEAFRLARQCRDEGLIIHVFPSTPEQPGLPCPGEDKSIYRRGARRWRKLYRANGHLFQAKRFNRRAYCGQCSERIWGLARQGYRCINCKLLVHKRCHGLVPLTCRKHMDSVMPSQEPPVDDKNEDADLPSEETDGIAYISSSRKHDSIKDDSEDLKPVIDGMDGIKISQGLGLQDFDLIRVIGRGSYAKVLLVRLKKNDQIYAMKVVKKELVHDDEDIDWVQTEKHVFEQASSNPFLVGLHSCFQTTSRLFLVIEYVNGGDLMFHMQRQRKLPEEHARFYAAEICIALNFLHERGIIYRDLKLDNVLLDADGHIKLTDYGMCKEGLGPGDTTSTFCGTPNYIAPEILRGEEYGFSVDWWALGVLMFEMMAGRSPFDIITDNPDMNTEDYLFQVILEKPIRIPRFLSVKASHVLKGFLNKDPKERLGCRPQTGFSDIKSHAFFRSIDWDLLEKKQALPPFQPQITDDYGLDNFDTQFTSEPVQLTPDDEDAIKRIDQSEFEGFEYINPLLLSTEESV

[20] = molecular target: T3, Protein kinase C epsilon type (Homo sapiens, UniProt Q02156); experiment: Inhibition of human recombinant PKCepsilon expressed in Sf21 cells using Bio-cdc peptide substrate and ATP after 60 mins by time-resolved fluorescence in-vitro kinase assay
T3 sequence (Q02156 whole entry): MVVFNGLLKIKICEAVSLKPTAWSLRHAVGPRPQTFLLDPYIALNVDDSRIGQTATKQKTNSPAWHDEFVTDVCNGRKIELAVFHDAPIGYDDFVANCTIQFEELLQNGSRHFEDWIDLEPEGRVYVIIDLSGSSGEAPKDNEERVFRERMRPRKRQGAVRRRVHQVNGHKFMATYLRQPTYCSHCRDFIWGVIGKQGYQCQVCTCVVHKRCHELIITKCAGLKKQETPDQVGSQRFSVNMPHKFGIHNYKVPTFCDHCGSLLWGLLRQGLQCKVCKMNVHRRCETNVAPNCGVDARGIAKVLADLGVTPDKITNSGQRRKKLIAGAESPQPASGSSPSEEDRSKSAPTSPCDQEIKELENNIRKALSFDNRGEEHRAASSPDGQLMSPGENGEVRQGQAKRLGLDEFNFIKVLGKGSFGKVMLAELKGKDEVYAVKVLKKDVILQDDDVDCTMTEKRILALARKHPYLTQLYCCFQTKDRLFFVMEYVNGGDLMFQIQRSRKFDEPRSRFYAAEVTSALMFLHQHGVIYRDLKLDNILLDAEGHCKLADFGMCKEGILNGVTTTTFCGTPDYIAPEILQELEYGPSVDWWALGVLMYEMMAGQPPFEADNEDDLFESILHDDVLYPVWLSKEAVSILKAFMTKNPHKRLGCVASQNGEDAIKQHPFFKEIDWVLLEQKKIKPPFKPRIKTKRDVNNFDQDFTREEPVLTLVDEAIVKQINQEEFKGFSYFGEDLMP

T1 sequence (Q04759 whole entry): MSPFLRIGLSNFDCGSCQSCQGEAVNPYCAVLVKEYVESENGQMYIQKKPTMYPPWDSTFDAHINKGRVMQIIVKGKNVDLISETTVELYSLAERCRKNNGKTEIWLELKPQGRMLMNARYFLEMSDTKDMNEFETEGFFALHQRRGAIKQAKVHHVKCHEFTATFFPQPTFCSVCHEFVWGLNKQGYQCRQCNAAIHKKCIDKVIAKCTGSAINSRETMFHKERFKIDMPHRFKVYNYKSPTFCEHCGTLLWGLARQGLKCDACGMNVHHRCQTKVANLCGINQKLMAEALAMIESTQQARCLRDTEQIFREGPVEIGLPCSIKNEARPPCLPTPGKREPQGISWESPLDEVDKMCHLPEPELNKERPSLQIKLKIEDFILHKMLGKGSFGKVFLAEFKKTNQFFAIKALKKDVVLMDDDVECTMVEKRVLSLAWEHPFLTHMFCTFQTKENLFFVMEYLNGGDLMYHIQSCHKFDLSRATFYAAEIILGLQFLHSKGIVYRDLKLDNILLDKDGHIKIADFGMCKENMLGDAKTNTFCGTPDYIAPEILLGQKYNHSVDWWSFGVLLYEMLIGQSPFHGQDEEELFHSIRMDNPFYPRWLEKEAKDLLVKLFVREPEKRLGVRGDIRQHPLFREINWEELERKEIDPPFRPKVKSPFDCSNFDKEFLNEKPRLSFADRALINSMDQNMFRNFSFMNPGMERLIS

SMILES | IC50 [1] | IC50 [2] | CL free [3] | IC50 [5] | Papp A→B [6] | other results
O=C1CN2C(=NN1)COc1ccc(NC(=O)C3CCNCC3)cc12 | 3.5 µM | – | – | – | – | –
O=C1CN2C(=NN1)COc1ccc(NCC3CCNC3)cc12 (stereo not drawn) | 20 µM | – | – | – | – | –
O=C1CN2C(=NN1)COc1ccc(NC3CCCNC3)cc12 (stereo not drawn) | 14 µM | – | – | – | – | –
CC1C(=O)NN=C2COc3cc(C(F)(F)F)c(OC4CNC4)cc3N21 (stereo not drawn) | 0.19 µM | 0.91 µM | 51.7 mL/min/kg | 3 µM | – | CL free [4]: < 73.3 mL/min/kg
O=C1CN2C(=NN1)COc1ccc(NC3CCC3)cc12 | 38 µM | – | – | – | – | –
C[C@H]1C(=O)NN=C2COc3cc(C(F)(F)F)c(NC4CNC4)cc3N21 | – | 1 µM | 85 mL/min/kg | 2.9 µM | 0.25 ×10⁻⁶ cm/s | CL free [4]: 118 mL/min/kg; CL free [7]: < 120 mL/min/kg
CN(C)Cc1ccc2c(c1)OCC1=NNC(=O)CN12 | 16 µM | – | – | – | – | –
CC1C(=O)NN=C2COc3cc(C(F)(F)F)c(NC4CNC4)cc3N21 (stereo not drawn) | – | 0.23 µM | 56.7 mL/min/kg | 2.2 µM | 0.85 ×10⁻⁶ cm/s | CL free [4]: < 67 mL/min/kg
O=C1NN=C2COc3ccc(NC4CNC4)cc3N2C1c1ccccc1 (stereo not drawn) | > 50 µM | – | – | > 50 µM | – | –
CC1C(=O)NN=C2COc3cc(C(F)(F)F)c(CC4CNC4)cc3N21 (stereo not drawn) | 0.059 µM | 0.39 µM | < 46.7 mL/min/kg | 1.6 µM | 0.5 ×10⁻⁶ cm/s | CL free [4]: 81.7 mL/min/kg
CCC1C(=O)NN=C2COc3ccc(NC4CNC4)cc3N21 (stereo not drawn) | 1 µM | – | – | 5.4 µM | – | –
CC1C(=O)NN=C2COc3cc(F)c(NC4CNC4)cc3N21 (stereo not drawn) | 0.1 µM | 0.31 µM | < 26.7 mL/min/kg | 6.9 µM | 0.86 ×10⁻⁶ cm/s | CL free [4]: 50 mL/min/kg
C[C@H]1C(=O)NN=C2COc3cc(-c4ccccc4)c(NC4CNC4)cc3N21 | 0.76 µM | 2.4 µM | 110 mL/min/kg | 6.6 µM | 0.23 ×10⁻⁶ cm/s | CL free [4]: < 103 mL/min/kg; CL free [7]: 417 mL/min/kg
O=C1CN2C(=NN1)COc1ccc(NC(=O)CC3CCNCC3)cc12 | > 50 µM | – | – | – | – | –
Cc1cc2c(cc1NC1CNC1)N1C(=NNC(=O)[C@H]1C)CO2 | 0.055 µM | 0.27 µM | 40 mL/min/kg | 5.1 µM | 0.35 ×10⁻⁶ cm/s | IC50 [8]: 0.52 µM; Cmax [9]: 8.7 ng/mL; clearance [10]: 81.7 mL/min/kg; IC50 [11]: 23 µM; IC50 [12]: 0.75 µM; AUC [13]: 60 ng·h/mL; bioavailability [14]: 9.2%; half-life [15]: 3 h
Cc1cc2c(cc1NC1CNC1)N1C(=NNC(=O)C1C)CO2 (stereo not drawn) | 0.11 µM | 0.43 µM | < 33 mL/min/kg | 4.1 µM | 0.31 ×10⁻⁶ cm/s | CL free [4]: 61.7 mL/min/kg
O=C1CN2C(=NN1)COc1ccc(NC3CCNCC3)cc12 | 21 µM | – | – | – | – | –

SMILES | IC50 [1] | IC50 [2] | CL free [3] | IC50 [5] | Papp A→B [6] | other results
CN1CCC(C(=O)Nc2ccc3c(c2)N2CC(=O)NN=C2CO3)CC1 | 4.5 µM | – | – | – | – | –
O=C1CN2C(=NN1)COc1ccc(NC(=O)C3CCNC3)cc12 (stereo not drawn) | 46 µM | – | – | – | – | –
CC1C(=O)NN=C2COc3ccc(NC4CNC4)cc3N21 (stereo not drawn) | 0.23 µM | 2.7 µM | 33 mL/min/kg | 9.4 µM | 0.42 ×10⁻⁶ cm/s | CL free [4]: 48.3 mL/min/kg
CC(C)c1cc2c(cc1NC1CNC1)N1C(=NNC(=O)C1C)CO2 (stereo not drawn) | 0.13 µM | 0.34 µM | < 33 mL/min/kg | 2.2 µM | 0.28 ×10⁻⁶ cm/s | CL free [4]: 88.3 mL/min/kg
O=C1CN2C(=NN1)COc1ccc(NC3COC3)cc12 | > 50 µM | – | – | – | – | –
O=C1CN2C(=NN1)COc1ccc(NC3CNC3)cc12 | 1.3 µM | – | – | 7.1 µM | – | –
CC(N)CNc1ccc2c(c1)N1CC(=O)NN=C1CO2 (stereo not drawn) | 18 µM | – | – | – | – | –
Cc1cc2c(cc1NC1CNC1)N1C(=NNC(=O)[C@@H]1C)CO2 | 0.39 µM | 4.2 µM | – | 3 µM | 0.16 ×10⁻⁶ cm/s | CL free [7]: < 73.3 mL/min/kg
O=C1CN2C(=NN1)COc1ccccc12 | 453 µM | – | – | > 50 µM | – | IC50 [16]: 19 µM; IC50 [17]: 156 µM
O=C1CN2C(=NN1)COc1ccc(NCC3CNC3)cc12 | 17 µM | – | – | – | – | –
O=C1CN2C(=NN1)COc1ccc(NCC3CCNCC3)cc12 | 31 µM | – | – | – | – | –
O=C1CN2C(=NN1)COc1ccc(NC3CCNC3)cc12 (stereo not drawn) | 3.3 µM | – | – | – | – | –
O=C1CN2C(=NN1)COc1ccc(NC(=O)C3CNC3)cc12 | 19 µM | – | – | – | – | –
O=C1NN=C2COc3ccc(NC4CNC4)cc3N2C1C1CC1 (stereo not drawn) | 3.5 µM | – | – | > 50 µM | – | –
C[C@@H]1C(=O)NN=C2COc3cc(-c4ccccc4)c(NC4CNC4)cc3N21 | 0.049 µM | 0.12 µM | 90 mL/min/kg | 1.8 µM | 0.27 ×10⁻⁶ cm/s | IC50 [8]: 0.087 µM; IC50 [18]: 0.86 µM; Cmax [9]: 5.3 ng/mL; CL free [4]: 200 mL/min/kg; CL free [7]: 467 mL/min/kg; clearance [10]: 81.7 mL/min/kg; IC50 [11]: 13 µM; IC50 [19]: 8.5 µM; IC50 [12]: 0.33 µM; AUC [13]: 43 ng·h/mL; bioavailability [14]: 5.4%; half-life [15]: 5.9 h; IC50 [20]: 0.46 µM
CN(C)CC(=O)Nc1ccc2c(c1)N1CC(=O)NN=C1CO2 | 46 µM | – | – | – | – | –
O=C1CN2C(=NN1)COc1ccc(NC3CCCNCC3)cc12 (stereo not drawn) | 8.9 µM | – | – | – | – | –
